# Reference: PubChem BioAssay (NCI)
# Several values for one entry are separate records, joined by “and”; a condition that tells them apart may be missing. Identical values can stand only once.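 The compound was tested at five concentrations on cells cultured in 96-well plates, with a 48-hour exposure period. Abbreviation: GI50, concentration required for 50% inhibition of growth. TGI: concentration producing complete growth inhibition.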
# Key:
# Assay in all cases: inhibition of tumour cell growth, NCI panel, 48 h
# HT29 colon = tested on: HT29 colon
# SF-268 CNS = tested on: SF-268 CNS
# NCI-H23 lung = tested on: NCI-H23 lung
# HOP-92 NSCLC = tested on: HOP-92 NSCLC
# TK-10 renal = tested on: TK-10 renal
# SK-OV-3 ovarian = tested on: SK-OV-3 ovarian
# ACHN renal = tested on: ACHN renal
# SK-MEL-5 melanoma = tested on: SK-MEL-5 melanoma
# CCRF-CEM leukemia = tested on: CCRF-CEM leukemia
# SW-620 colon = tested on: SW-620 colon
# BT-549 breast = tested on: BT-549 breast
# U251 CNS = tested on: U251 CNS
Structure (SMILES),TGI (HT29 colon),TGI (SF-268 CNS),TGI (NCI-H23 lung),TGI (HOP-92 NSCLC),TGI (TK-10 renal),TGI (SK-OV-3 ovarian),TGI (ACHN renal),TGI (SK-MEL-5 melanoma),TGI (CCRF-CEM leukemia),TGI (SW-620 colon),TGI (BT-549 breast),TGI (U251 CNS),GI50 (SF-268 CNS),GI50 (HOP-92 NSCLC),GI50 (TK-10 renal),GI50 (SK-OV-3 ovarian),GI50 (ACHN renal),GI50 (SK-MEL-5 melanoma),GI50 (SW-620 colon)
COc1ccc2nc3cc([N+](=O)[O-])ccc3c(NNc3ccc(Cl)cc3)c2c1,43.5 µM,> 100 µM,> 100 µM,57.9 µM,5.16 µM,> 100 µM,> 82.2 µM,36.2 µM,80.1 µM,> 76.3 µM,> 92.1 µM,74.6 µM,–,–,–,–,–,–,–
COC(=O)/C(C#N)=C1\NC(=O)CC(c2ccccc2)C1C#N (stereo not drawn),> 100 µM,> 100 µM,–,> 100 µM,> 100 µM,> 100 µM,> 100 µM,> 100 µM,> 100 µM,> 100 µM,> 100 µM,–,–,–,–,–,–,–,–
Nc1nc(N)nc(-c2cnccn2)n1,–,> 100 µM,> 100 µM,> 100 µM,> 100 µM,> 100 µM,> 100 µM,–,> 100 µM,> 100 µM,> 100 µM,> 100 µM,–,–,–,–,–,–,–
CS(=O)(=O)c1[nH]nc2[nH]c(=O)[nH]c(=O)c12,> 10 µM,> 10 µM,> 10 µM,> 10 µM,> 10 µM,> 10 µM,> 10 µM,> 10 µM,> 10 µM,> 10 µM,> 10 µM,> 10 µM,–,–,–,–,–,–,–
CC1=CC2(O)OC3(CC2=C(C)C)C(C)CCC13 (stereo not drawn),> 100 µM,> 100 µM,> 100 µM,> 100 µM,> 100 µM,> 100 µM,> 100 µM,> 100 µM,> 100 µM,> 100 µM,> 100 µM,> 100 µM,–,–,–,–,–,–,–
CCC(CC)C(=O)OC[n+]1cccc(-c2c(COC(=O)NC(C)C)c(COC(=O)NC(C)C)c3n2CCC3)c1,> 100 µM,> 100 µM,> 100 µM,> 100 µM,> 100 µM,> 100 µM,> 100 µM,> 100 µM,> 100 µM,> 100 µM,> 100 µM,> 100 µM,–,–,–,–,–,–,–
CN(C)CCOC1(Cc2ccc(Cl)cc2Cl)CCC(C(C)(C)C)CC1 (stereo not drawn),3.16 µM and 3.13 µM,7.89 µM and 6.85 µM,5.74 µM and 4.15 µM,3.54 µM and 5.92 µM,4.99 µM and 2.75 µM,4.22 µM and 11 µM,5.28 µM and 4.05 µM,3.07 µM and 3.61 µM,4.69 µM and 5.32 µM,3.84 µM and 4.78 µM,3.16 µM and 3.25 µM,2.9 µM and 3.45 µM,2.28 µM,1.8 µM and 2.12 µM,2.02 µM,4.79 µM,1.99 µM,2.05 µM,1.73 µM
CC(=O)O[C@H]1C(=O)[C@@]2(C)[C@H]([C@H](OC(=O)c3ccc([N+](=O)[O-])cc3)[C@]3(O)C[C@H](OC(=O)[C@H](O)[C@@H](NC(=O)c4ccccc4)c4ccccc4)C(C)=C1C3(C)C)[C@]1(OC(C)=O)CO[C@@H]1C[C@@H]2O,> 25 µM,> 25 µM,> 25 µM,> 25 µM,> 25 µM,> 25 µM,> 25 µM,> 25 µM,> 25 µM,> 25 µM,> 25 µM,> 25 µM,–,–,–,–,–,–,–
C[C@]12CC(c3ccccc3O1)C(C#N)C(=O)N2 (stereo partly drawn),> 100 µM,> 100 µM,> 100 µM,> 100 µM,–,> 100 µM,> 100 µM,> 100 µM,> 100 µM,> 100 µM,> 100 µM,> 100 µM,–,–,–,–,–,–,–
NC1=CC(C(=O)c2ccncc2)c2nc3ccccc3nc21 (stereo not drawn),> 100 µM,> 100 µM,> 100 µM,> 100 µM,> 100 µM,> 100 µM,> 100 µM,> 100 µM,> 100 µM,> 100 µM,> 100 µM,> 100 µM,–,–,–,–,–,–,–
C[C@H]1C(OCCOC2O[C@@H]3O[C@@]4(C)CC[C@H]5[C@H](C)CCC([C@H]2C)[C@@]35O4)O[C@@H]2O[C@@]3(C)CC[C@H]4[C@H](C)CCC1[C@@]24O3 (stereo partly drawn),> 100 µM,> 100 µM,> 100 µM,> 100 µM,–,> 100 µM,> 100 µM,32.2 µM,82.5 µM,> 100 µM,> 100 µM,> 100 µM,–,–,–,–,–,–,–
O=c1oc2cc(O)ccc2c(O)c1C(c1ccccn1)c1c(O)c2ccc(O)cc2oc1=O,> 100 µM,> 100 µM,> 100 µM,> 100 µM,> 100 µM,> 100 µM,> 100 µM,> 100 µM,> 100 µM,> 100 µM,> 100 µM,> 100 µM,–,–,–,–,–,–,–
CC(NC(=O)/C(C#N)=C/c1ccc2[nH]ccc2c1)c1ccccc1 (stereo not drawn),31.6 µM,42.6 µM,43.3 µM,33.5 µM,50.1 µM,40.4 µM,> 64.9 µM,33 µM,45.8 µM,33 µM,23.5 µM,29.4 µM,–,–,–,–,–,–,–
Cc1cnc2[nH]c(-c3ccc(F)cc3)cc(=O)c2c1,> 100 µM,> 100 µM,> 100 µM,> 100 µM,> 100 µM,> 68 µM,> 100 µM,> 100 µM,> 100 µM,> 100 µM,> 100 µM,> 91.8 µM,–,–,–,–,–,–,–
CCCC(=O)N/S(=N/S(=O)(=O)c1ccc(Cl)cc1)C(Cl)(Cl)Cl (stereo not drawn),> 100 µM,> 100 µM,> 100 µM,–,> 100 µM,> 100 µM,> 100 µM,> 100 µM,> 100 µM,> 100 µM,> 100 µM,> 100 µM,–,–,–,–,–,–,–
COc1ccc(C2SC(N)=Nc3c2c(C)nn3C(=O)c2ccc(Cl)cc2)cc1 (stereo not drawn),> 10 µM,> 10 µM,> 10 µM,> 10 µM,> 10 µM,> 10 µM,> 10 µM,> 10 µM,> 10 µM,> 10 µM,> 10 µM,> 10 µM,–,–,–,–,–,–,–
O=c1cc(NCC2CCCCC2)[nH]c(=O)[nH]1,–,> 100 µM,> 100 µM,> 100 µM,> 100 µM,–,> 100 µM,> 100 µM,> 100 µM,> 100 µM,> 100 µM,> 100 µM,–,–,–,–,–,–,–
CCOC(=O)c1cc(C2CCN(CC(C)CC)C2=S)c(C(=O)/C=C(/C)N)[nH]1 (stereo not drawn),> 50 µM,> 50 µM,> 50 µM,–,> 50 µM,> 50 µM,> 50 µM,> 50 µM,> 50 µM,> 50 µM,> 50 µM,> 50 µM,–,–,–,–,–,–,–
